# In patent US9707305B2, “Formulas for diagnosing and treating hormone-dependent cancers and cancers of the organs responsible for steroid hormone synthesis” (Commissariat à l'énergie atomique et aux énergies …, priority 2011, dated 2017):
# Test: Biodistribution of the nano-emulsion of Example 1.1 (radioactivity and fluorescence per organ)
# Assay type: in vivo
# Procedure: In the following examples, the radioactivity was counted with the TRiCarb Counter (Ref: Packard, Liquid Scintillation Analyzers; Models 2200CA).
# Fluobeam 700 (Fluoptics) is the apparatus with which the whole of the organs from the biodistribution were analyzed in fluorescence as well as the one with which the biodistribution kinetics of the nano-emulsions were established in vivo. This imaging system allows viewing of the fluorescence in spectral bands from 700 to 850 nm for a 650 nm excitation. The apparatus consists of an electric case containing the laser of class 3B, its power supply and an optical head containing the CCD camera.
# The nano-emulsions of Example 1 were injected into FVB female and male mice. As a comparison, a mixture of three tracers ([3H]CHE, [14C]CO and DiD) (not formulated as a nano-emulsion) was injected in order to observe the distribution of the tracers in the absence of droplets being used as a distribution carrier.
# Tables 6 to 14 provide the biodistribution results of each tracer ([3H]CHE, [14C]CO and DiD) expressed as a percentage of the dose injected per gram of tissue (or [3H]CHE and [14C]CO) or as fluorescence intensity (for DiD) depending on the organ of the mouse, 15 minutes (Table 6), 2 hours (Table 7), 4 hours (Table 8), 6 hours (Table 9), 16 hours (Table 10), 24 hours (Table 11), 72 hours (Table 12), 120 hours (Table 13) and 168 hours (Table 14), after injection into an FVB female mouse of the nano-emulsion of Example 1.1. (nano-emulsion according to the invention comprising the three tracers ([3H]CHE, [14C]CO and DiD).
# [1] = 15 min after injection of nano-emulsion of Example 1.1, FVB female mouse
# [2] = 2 h after injection of nano-emulsion of Example 1.1, FVB female mouse
# [3] = 4 h after injection of nano-emulsion of Example 1.1, FVB female mouse
# [4] = 16 h (Table 9 head) after injection of nano-emulsion of Example 1.1, FVB female mouse
# [5] = 24 h (Table 10 head) after injection of nano-emulsion of Example 1.1, FVB female mouse
# [6] = 48 h (Table 11 head) after injection of nano-emulsion of Example 1.1, FVB female mouse
# [7] = 72 h after injection of nano-emulsion of Example 1.1, FVB female mouse
# [8] = 120 h after injection of nano-emulsion of Example 1.1, FVB female mouse
# [9] = 168 h after injection of nano-emulsion of Example 1.1, FVB female mouse
smiles,measurement,setting,value
"CCCCCCCCCCCCCCCCO[C@H]1CC[C@@]2(C)C(=CC[C@H]3[C@@H]4CC[C@H]([C@H](C)CCCC(C)C)[C@@]4(C)CC[C@@H]32)C1 [[3H]CHE, cholesteryl hexadecylether]","biodistribution, Adrenal glands (MEAN)",[1],10.60 % of injected dose per gram of
same,"biodistribution, Brain (MEAN)",[1],0.476 % of injected dose per gram of
same,"biodistribution, Fat (MEAN)",[1],1.10 % of injected dose per gram of
same,"biodistribution, Heart (MEAN)",[1],8.303 % of injected dose per gram of
same,"biodistribution, Intestine (MEAN)",[1],1.71 % of injected dose per gram of
same,"biodistribution, Kidney (MEAN)",[1],4.09 % of injected dose per gram of
same,"biodistribution, Liver (MEAN)",[1],8.26 % of injected dose per gram of
same,"biodistribution, Lung (MEAN)",[1],3.91 % of injected dose per gram of
same,"biodistribution, Muscle (MEAN)",[1],0.675 % of injected dose per gram of
same,"biodistribution, Ovary (MEAN)",[1],5.38 % of injected dose per gram of
same,"biodistribution, Pancreas (MEAN)",[1],1.233 % of injected dose per gram of
same,"biodistribution, Salivary glands (MEAN)",[1],1.157 % of injected dose per gram of
same,"biodistribution, Spleen (MEAN)",[1],3.63 % of injected dose per gram of
same,"biodistribution, Uterus (MEAN)",[1],0.90 % of injected dose per gram of
same,"biodistribution, Adrenal glands (MEAN)",[2],21.12 % of injected dose per gram of
same,"biodistribution, Brain (MEAN)",[2],0.26 % of injected dose per gram of
same,"biodistribution, Fat (MEAN)",[2],0.76 % of injected dose per gram of
same,"biodistribution, Heart (MEAN)",[2],4.64 % of injected dose per gram of
same,"biodistribution, Intestine (MEAN)",[2],2.44 % of injected dose per gram of
same,"biodistribution, Kidneys (MEAN)",[2],3.83 % of injected dose per gram of
same,"biodistribution, Liver (MEAN)",[2],31.09 % of injected dose per gram of
same,"biodistribution, Lung (MEAN)",[2],4.44 % of injected dose per gram of
same,"biodistribution, Muscle (MEAN)",[2],0.45 % of injected dose per gram of
same,"biodistribution, Ovary (MEAN)",[2],29.28 % of injected dose per gram of
same,"biodistribution, Pancreas (MEAN)",[2],1.43 % of injected dose per gram of
same,"biodistribution, Salivary glands (MEAN)",[2],1.42 % of injected dose per gram of
same,"biodistribution, Spleen (MEAN)",[2],5.10 % of injected dose per gram of
same,"biodistribution, Uterus (MEAN)",[2],2.23 % of injected dose per gram of
same,"biodistribution, Adrenal glands (MEAN)",[3],28.13 % of injected dose per gram of
same,"biodistribution, Brain (MEAN)",[3],0.19 % of injected dose per gram of
same,"biodistribution, Fat (MEAN)",[3],1.40 % of injected dose per gram of
same,"biodistribution, Heart (MEAN)",[3],4.94 % of injected dose per gram of
same,"biodistribution, Intestine (MEAN)",[3],2.46 % of injected dose per gram of
same,"biodistribution, Kidney (MEAN)",[3],2.51 % of injected dose per gram of
same,"biodistribution, Liver (MEAN)",[3],37.43 % of injected dose per gram of
same,"biodistribution, Lungs (MEAN)",[3],4.02 % of injected dose per gram of
same,"biodistribution, Muscle (MEAN)",[3],0.41 % of injected dose per gram of
same,"biodistribution, Ovary (MEAN)",[3],39.41 % of injected dose per gram of
same,"biodistribution, Pancreas (MEAN)",[3],1.01 % of injected dose per gram of
same,"biodistribution, Salivary glands (MEAN)",[3],1.09 % of injected dose per gram of
same,"biodistribution, Spleen (MEAN)",[3],5.00 % of injected dose per gram of
same,"biodistribution, Uterus (MEAN)",[3],1.69 % of injected dose per gram of
same,"biodistribution, Adrenal glands (MEAN)",[4],43.16 % of injected dose per gram of
same,"biodistribution, Brain (MEAN)",[4],0.13 % of injected dose per gram of
same,"biodistribution, Fat (MEAN)",[4],1.36 % of injected dose per gram of
same,"biodistribution, Heart (MEAN)",[4],3.49 % of injected dose per gram of
same,"biodistribution, Intestine (MEAN)",[4],4.87 % of injected dose per gram of
same,"biodistribution, Kidney (MEAN)",[4],2.06 % of injected dose per gram of
same,"biodistribution, Liver (MEAN)",[4],47.67 % of injected dose per gram of
same,"biodistribution, Lungs (MEAN)",[4],4.63 % of injected dose per gram of
same,"biodistribution, Muscle (MEAN)",[4],0.76 % of injected dose per gram of
same,"biodistribution, Ovary (MEAN)",[4],52.26 % of injected dose per gram of
same,"biodistribution, Pancreas (MEAN)",[4],1.17 % of injected dose per gram of
same,"biodistribution, Salivary glands (MEAN)",[4],1.27 % of injected dose per gram of
same,"biodistribution, Spleen (MEAN)",[4],7.48 % of injected dose per gram of
same,"biodistribution, Uterus (MEAN)",[4],3.91 % of injected dose per gram of
same,"biodistribution, Adrenal glands (MEAN)",[5],39.68 % of injected dose per gram of
same,"biodistribution, Brain (MEAN)",[5],0.09 % of injected dose per gram of
same,"biodistribution, Fat (MEAN)",[5],0.88 % of injected dose per gram of
same,"biodistribution, Heart (MEAN)",[5],3.53 % of injected dose per gram of
same,"biodistribution, Intestine (MEAN)",[5],2.78 % of injected dose per gram of
same,"biodistribution, Kidney (MEAN)",[5],1.50 % of injected dose per gram of
same,"biodistribution, Liver (MEAN)",[5],48.76 % of injected dose per gram of
same,"biodistribution, Lung (MEAN)",[5],3.21 % of injected dose per gram of
same,"biodistribution, Muscle (MEAN)",[5],0.46 % of injected dose per gram of
same,"biodistribution, Ovary (MEAN)",[5],38.06 % of injected dose per gram of
same,"biodistribution, Pancreas (MEAN)",[5],0.64 % of injected dose per gram of
same,"biodistribution, Salivary glands (MEAN)",[5],1.40 % of injected dose per gram of
same,"biodistribution, Spleen (MEAN)",[5],7.50 % of injected dose per gram of
same,"biodistribution, Uterus (MEAN)",[5],1.82 % of injected dose per gram of
same,"biodistribution, Adrenal glands (MEAN)",[6],42.26 % of injected dose per gram of
same,"biodistribution, Brain (MEAN)",[6],0.08 % of injected dose per gram of
same,"biodistribution, Fat (MEAN)",[6],1.05 % of injected dose per gram of
same,"biodistribution, Heart (MEAN)",[6],3.52 % of injected dose per gram of
same,"biodistribution, Intestine (MEAN)",[6],4.43 % of injected dose per gram of
same,"biodistribution, Kidney (MEAN)",[6],1.63 % of injected dose per gram of
same,"biodistribution, Liver (MEAN)",[6],58.43 % of injected dose per gram of
same,"biodistribution, Lungs (MEAN)",[6],3.91 % of injected dose per gram of
same,"biodistribution, Muscle (MEAN)",[6],0.36 % of injected dose per gram of
same,"biodistribution, Ovary (MEAN)",[6],36.42 % of injected dose per gram of
same,"biodistribution, Pancreas (MEAN)",[6],1.00 % of injected dose per gram of
same,"biodistribution, Salivary glands (MEAN)",[6],1.09 % of injected dose per gram of
same,"biodistribution, Spleen (MEAN)",[6],12.32 % of injected dose per gram of
same,"biodistribution, Uterus (MEAN)",[6],3.75 % of injected dose per gram of
same,"biodistribution, Adrenal glands (MEAN)",[7],36.92 % of injected dose per gram of
same,"biodistribution, Brain (MEAN)",[7],0.08 % of injected dose per gram of
same,"biodistribution, Fat (MEAN)",[7],0.85 % of injected dose per gram of
same,"biodistribution, Heart (MEAN)",[7],2.98 % of injected dose per gram of
same,"biodistribution, Intestine (MEAN)",[7],3.58 % of injected dose per gram of
same,"biodistribution, Kidney (MEAN)",[7],1.27 % of injected dose per gram of
same,"biodistribution, Liver (MEAN)",[7],39.73 % of injected dose per gram of
same,"biodistribution, Lungs (MEAN)",[7],2.95 % of injected dose per gram of
same,"biodistribution, Muscle (MEAN)",[7],0.22 % of injected dose per gram of
same,"biodistribution, Ovary (MEAN)",[7],25.11 % of injected dose per gram of
same,"biodistribution, Pancreas (MEAN)",[7],0.74 % of injected dose per gram of
same,"biodistribution, Salivary glands (MEAN)",[7],1.10 % of injected dose per gram of
same,"biodistribution, Spleen (MEAN)",[7],7.65 % of injected dose per gram of
same,"biodistribution, Uterus (MEAN)",[7],5.63 % of injected dose per gram of
same,"biodistribution, Adrenal gland (MEAN)",[8],41.92 % of injected dose per gram of
same,"biodistribution, Brain (MEAN)",[8],0.08 % of injected dose per gram of
same,"biodistribution, Fat (MEAN)",[8],0.68 % of injected dose per gram of
same,"biodistribution, Heart (MEAN)",[8],2.59 % of injected dose per gram of
same,"biodistribution, Intestine (MEAN)",[8],3.60 % of injected dose per gram of
same,"biodistribution, Kidney (MEAN)",[8],1.29 % of injected dose per gram of
same,"biodistribution, Liver (MEAN)",[8],39.13 % of injected dose per gram of
same,"biodistribution, Lungs (MEAN)",[8],3.30 % of injected dose per gram of
same,"biodistribution, Muscle (MEAN)",[8],0.27 % of injected dose per gram of
same,"biodistribution, Ovary (MEAN)",[8],16.92 % of injected dose per gram of
same,"biodistribution, Pancreas (MEAN)",[8],1.00 % of injected dose per gram of
same,"biodistribution, Salivary glands (MEAN)",[8],2.14 % of injected dose per gram of
same,"biodistribution, Spleen (MEAN)",[8],9.69 % of injected dose per gram of
same,"biodistribution, Uterus (MEAN)",[8],4.99 % of injected dose per gram of
same,"biodistribution, Adrenal glands (MEAN)",[9],29.30 % of injected dose per gram of
same,"biodistribution, Brain (MEAN)",[9],0.07 % of injected dose per gram of
same,"biodistribution, Fat (MEAN)",[9],0.99 % of injected dose per gram of
same,"biodistribution, Heart (MEAN)",[9],2.19 % of injected dose per gram of
same,"biodistribution, Intestine (MEAN)",[9],2.80 % of injected dose per gram of
same,"biodistribution, Kidneys (MEAN)",[9],1.44 % of injected dose per gram of
same,"biodistribution, Liver (MEAN)",[9],32.70 % of injected dose per gram of
same,"biodistribution, Lungs (MEAN)",[9],1.70 % of injected dose per gram of
same,"biodistribution, Muscle (MEAN)",[9],0.37 % of injected dose per gram of
same,"biodistribution, Ovary (MEAN)",[9],20.61 % of injected dose per gram of
same,"biodistribution, Pancreas (MEAN)",[9],0.79 % of injected dose per gram of
same,"biodistribution, Salivary glands (MEAN)",[9],2.01 % of injected dose per gram of
same,"biodistribution, Spleen (MEAN)",[9],10.71 % of injected dose per gram of
same,"biodistribution, Uterus (MEAN)",[9],4.86 % of injected dose per gram of
